According to patent US20170216244A1, “METHODS FOR TREATING DIABETIC NEPHROPATHY” (YALE UNIVERSITY, priority 2014, published 2017):
Values joined by “and” are separate entries in the source; they are usually repeats but may differ in a detail not shown here. Equal values may be shown once. “Also recorded” adds a separate entry of the source.

Experiments:
Sema3a^+ podocytes = assay: Podocyte morphology assay (rhodamine-phalloidin staining, cell area morphometry); type: cell-based
Protocol: Sema3a^+ podocyte cell line was described previously (Reidy et al., Am J Pathol 2013;183(4):1156-1168). Sema3a^+ podocytes were exposed to RPMI 1640 medium+1%FBS, medium+0.1 μM xanthofulvin, medium+100 ng/ml rat recombinant Sema3a (Reidy et al., Development 2009;136(23):3979-3989) or medium+xanthofulvin+Sema3a for 16 h, fixed and stained with rhodamine-phalloidin. Images were acquired (Zeiss Axiovert); podocyte area (μm^2) was measured using Zeiss AxioVision software as described (Reidy et al., Am J Pathol 2013;183(4):1156-1168), n=71±4 cells/experimental condition from 3 independent experiments were measured.

[1] = purified fungal xanthofulvin, in vivo; cited from earlier work
[2] = test system: Sema3a^+ gain-of-function diabetic mice; assay: Sema3a inhibition study: xanthofulvin subcutaneous infusion in Sema3a^+ gain-of-function diabetic mice; type: in vivo, mouse
Protocol: Podocin-rtTA:tet-O-Sema3a mice, herein called Sema3a^+, generated previously (Reidy et al., Development 2009;136(23):3979-3989) were maintained in FVB genetic background for >10 generations. Diabetes was induced (low dose protocol, AMDCC.org) in 6-8 weeks old male Sema3a^+ mice by 5 daily i.p. streptozotocin (STZ) (50 mg/kg) . Diabetes (random blood glucose >300 mg/dl) was confirmed using glucose oxidase biosensor blood glucose meter (One-Touch-Ultra-2; LifeScan) one week after the last STZ injection. Diabetic Sema3a^+ (DM-Sema3a^+) (n=15) and non-diabetic Sema3a^+ (non-DM-Sema3a^+) (n=18) mice were fed doxycycline-containing diet (0.625mg/kg chow, Harlan-Teklad) or standard chow for 12-16 weeks. After 12-16 weeks of diabetes, 24 h urine was collected in metabolic cages, blood and kidneys were collected under anesthesia. For Sema3a inhibition studies, DM-Sema3a^+ mice were fed doxycycline-containing chow for 8 weeks, then Alzet osmotic pumps (Model 1004) containing xanthofulvin (0.5 mg/ml in PBS) (Ieda et al., Nat Med 2007;13(5):604-612) (n=4) or saline (n=2) were implanted subcutaneously, all mice were kept on doxycycline-containing chow for the following 4 weeks.
Urinary albumin was measured using mouse albumin ELISA (Bethyl Laboratories) and SDS-PAGE/Coomassie Blue staining as described (Reidy et al., Am J Pathol 2013;183(4):1156-1168). Plasma and 24h urine creatinine were measured by HPLC. Transmission electron microscopy (TEM) was performed using standard techniques. Glomerular area was measured using ImageJ-NIH (rsb.info.nih.gov/ij/) in 34±2.1 glomeruli/kidney from 4 mice/experimental condition. A renal pathologist (G.M.) examined PAS stained kidney specimens in blinded fashion and assigned a semiquantitative pathology score based on % area (0=none;1=1-25%;2=26-50%;3=51-75%;4=76-100%) with the following features: glomerular nodules, mesangiolysis, mesangial sclerosis and interstitial fibrosis. The percentage glomeruli/section containing mesangiolysis or nodules was calculated (Veron et al., J Am Soc Nephrol. 2014;25(8):1814-1824).

Sema3a = target: T1, Sema3a (Homo sapiens, UniProt Q14563); conditions: fungal and synthetic xanthofulvin, in vitro; cited from earlier work
T1 sequence (Q14563 21-771): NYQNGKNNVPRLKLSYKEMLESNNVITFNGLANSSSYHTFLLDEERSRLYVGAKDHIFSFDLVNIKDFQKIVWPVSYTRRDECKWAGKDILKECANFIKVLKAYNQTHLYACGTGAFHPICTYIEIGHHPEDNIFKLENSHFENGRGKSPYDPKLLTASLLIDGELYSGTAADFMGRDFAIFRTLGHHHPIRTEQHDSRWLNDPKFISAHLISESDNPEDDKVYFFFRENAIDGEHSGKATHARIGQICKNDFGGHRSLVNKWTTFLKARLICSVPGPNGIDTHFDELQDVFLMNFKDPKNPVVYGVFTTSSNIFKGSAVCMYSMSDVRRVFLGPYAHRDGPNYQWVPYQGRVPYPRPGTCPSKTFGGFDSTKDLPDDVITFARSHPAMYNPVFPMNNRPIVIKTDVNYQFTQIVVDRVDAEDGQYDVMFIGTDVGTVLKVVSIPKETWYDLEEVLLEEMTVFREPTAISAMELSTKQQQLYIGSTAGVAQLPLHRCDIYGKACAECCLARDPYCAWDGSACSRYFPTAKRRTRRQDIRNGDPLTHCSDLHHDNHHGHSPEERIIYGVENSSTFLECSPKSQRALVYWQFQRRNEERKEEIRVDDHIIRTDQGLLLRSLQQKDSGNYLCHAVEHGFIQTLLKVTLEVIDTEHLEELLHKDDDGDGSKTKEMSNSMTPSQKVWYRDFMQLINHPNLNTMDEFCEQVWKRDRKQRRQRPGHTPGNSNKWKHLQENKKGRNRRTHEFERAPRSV

MICAL1 = assay: Podocyte MICAL1 knockdown by siRNA, immunoblot; type: cell-based, mouse; conditions: 200 pmol siRNA, 72 hours, cultured podocytes, densitometry
Protocol: Equal amount of protein from ≧4 kidney lysates/experimental condition were pooled and resolved by SDS-PAGE, immunoblotting was performed using standard technique with the following primary antibodies: WT1, podocin, nephrin, laminin, Sema3a (sc-28867; Santa Cruz), β3-integrin (sc-14009; Santa Cruz), β1-integrin (AB1952; EMD-Millipore), neuropilin-1 (Kolodkin et al., Cell 1997;90:753-762; Takahashi et al., Cell 1999;99(1):59-69), MMP-2 (MAB13434; EMD-Millipore), MMP-9 (AB19016; EMD-Millipore), plexinA1 (sc-25639; Santa Cruz), VEGFR-2 (2479; Cell Signaling), MICAL1 (14818-1-AP; Proteintech); actin (A2066; Sigma) or tubulin (Sigma) were used as loading controls. Signals were detected with appropriate HRP-conjugated secondary antibodies, visualized by chemiluminescence and quantified using ImageJ.
(§1) Podocyte MICAL-1 knockdown was induced using a mouse MICAL-1 siRNA oligonucleotide ([…], SEQ ID NO: 1) (Zhou et al., Mol Cell Biol 2011;31(17):3603-3615) (Dharmacon). Briefly, podocytes were transfected with 200 pmol MICAL-1 siRNA or scrambled siRNA using Oligofectamine (Invitrogen) and incubated for 72 hours. MICAL1 knockdown was confirmed by immunoblot. Podocytes with or without MICAL1 knockdown were exposed to mouse recombinant Sema3a (100 ng/ml) for 6 hours. Podocytes were fixed, permeabilized, stained with rhodamine-phalloidin, and their morphology was analyzed as described above.

podocytes = assay: Podocyte MICAL1 knockdown morphology assay; type: cell-based; conditions: mouse recombinant Sema3a 100 ng/ml, 6 hours
Protocol: as §1

[3] = constant subcutaneous infusion ~1.8 μg/d for 30 days

Row | Compound | Sema3a-induced podocyte F-actin collapse, shape change and contraction (Sema3a^+ podocytes; 0.1 μM xanthofulvin, 100 ng/ml rat recombinant Sema3a, synthetic xanthofulvin) | deleterious effects in cultured podocytes (Sema3a^+ podocytes; cultured podocytes) | functional recovery of injured spinal cord [1] | GBM thickness (TEM morphometry) [2, 3] | body weight [2, 3] | creatinine clearance (renal insufficiency) [2, 3] | diabetic glomerulosclerosis phenotype by histology and TEM [2, 3] | foot process effacement / FP width (TEM morphometry) [2, 3] | plasma albumin (hypoalbuminemia) [2, 3] | side effect [2, 3] | albuminuria ([2]; constant subcutaneous infusion ~1.8 μg/d for 30 days (weeks 8-12 after diabetes onset)) | Sema3a-induced growth cone collapse (Sema3a) | decrease of MICAL1 expression (knockdown) (MICAL1) | Sema3a-induced podocyte contraction and F-actin collapse after MICAL1 knockdown (podocytes)
1 | CC(=O)c1c(C)c(/C(O)=C2\COc3cc(O)c(O)c(C(=O)O)c3C2=O)cc2c(=O)c3c(C(=O)O)c(O)c(O)cc3oc12 [xanthofulvin] | prevented Sema3a-induced podocyte F-actin collapse, shape change and contraction; also recorded: abrogates Sema3a-induced podocyte contraction in vitro; also recorded: abrogates Sema3a-induced podocyte F-actin collapse in vitro; also recorded: abrogates Sema3a-induced podocyte F-actin collapse, shape change and contraction | no deleterious effects in cultured podocytes | promotes functional recovery of injured spinal cord | significantly decreased GBM thickness; also recorded: quite normal GBM | stable body weight | abrogated renal insufficiency; also recorded: normalized | markedly attenuates the diabetic glomerulosclerosis phenotype; also recorded: abrogate the diabetic nodular glomerulosclerosis; also recorded: abrogated; also recorded: mild mesangial hypercellularity and extracellular matrix expansion | significantly decreased; also recorded: focal FPE | corrects hypoalbuminemia; also recorded: normalized | no apparent side effect | significantly decreases albuminuria; also recorded: decreased albuminuria; also recorded: improved albuminuria | prevent Sema3a-induced growth cone collapse in vitro | – | –
2 | siRNA: mouse MICAL-1 siRNA oligonucleotide (CAGGUGCCAUGACUAAGUAUU, SEQ ID NO: 1) (listed as RNA, chemistry not given here; listed as Mus musculus) | – | – | – | – | – | – | – | – | – | – | – | – | 73±2.6% and ~75% | not susceptible to Sema3a-induced contraction; also recorded: prevents Sema3a-induced podocyte contraction and F-actin collapse
